Experimental data reported in US7371773B2, “Breast cancer resistance protein (BCRP) inhibitor” (Kabushiki Kaisha Yakult Honsha, priority 2003, dated 2008).
Converted amounts (≈) assume the structure as drawn. Read-outs that look alike come from different tables or passages of the source.

Experiments:
Type in all cases: cell-based, human
[1] = system: A549/SN-38-4 cell line; experiment: Anticancer drug sensitivity test, A549/SN-38-4; conditions: for IC50: A549/SN-38-4, culturing 48 hours; for Relative resistance value: IC50 for A549/SN-38-4 divided by IC50 for A549
Description: (§1) Human non-small cell lung cancer A549 cell line was subcultured at 5% CO2 and 37° C. by use of a Ham's F-12 medium containing 10% FBS, 100 U/mL of penicillin, and 100 μg/mL of streptomycin (10% FBS/Ham's F-12). SN-38-resistant A549 cell lines were selected by subculturing the A549 cell line in a medium for two months while the concentration of SN-38 contained in the medium was increased in a stepwise manner (4 to 10 ng/mL). Subsequently, the resultant SN-38-resistant A549 cell lines were subjected to cloning by means of limiting dilution, to thereby establish six cloned SN-38-resistant A549 cell lines (A549/SN-38-1 to 6).
(§2) The A549 cell line or each of the A549/SN-38-1 to 6 was suspended in 10% FBS/Ham's F-12, and the resultant suspension was inoculated into a 96-well microplate, followed by culturing at 5% CO2 and 37° C. overnight. Thereafter, a solution of an anticancer drug in 10% FBS/Ham's F-12 (50 μL) was added to each of the wells, followed by culturing at 5% CO2 and 37° C. for 48 hours. After completion of culturing, the number of viable cells was counted by use of a viable cell counting reagent [TetraColor ONE (trade name), product of Seikagaku Corporation] according to the attached instruction manual. […] “Relative resistance value” is obtained by dividing the IC50 for an A549/SN-38 cell line by the IC50 for the A549 cell line. The greater the relative resistance value, the higher the level of acquired resistance.

[2] = system: A549/SN-38-3 cell line; experiment: Anticancer drug sensitivity test, A549/SN-38-3; conditions: for IC50: A549/SN-38-3, culturing 48 hours; for Relative resistance value: IC50 for A549/SN-38-3 divided by IC50 for A549
Description: as §1, §2

[3] = system: A549/SN-38-5 cell line; experiment: Anticancer drug sensitivity test, A549/SN-38-5; conditions: for IC50: A549/SN-38-5, culturing 48 hours; for Relative resistance value: IC50 for A549/SN-38-5 divided by IC50 for A549
Description: as §1, §2

[4] = system: A549 cell line; experiment: Anticancer drug sensitivity test, A549 cell line; conditions: culturing 48 hours
Description: as §2

[5] = system: A549/SN-38-2 cell line; experiment: Anticancer drug sensitivity test, A549/SN-38-2; conditions: for IC50: A549/SN-38-2, culturing 48 hours; for Relative resistance value: IC50 for A549/SN-38-2 divided by IC50 for A549
Description: as §1, §2

[6] = system: A549/SN-38-1 cell line; experiment: Anticancer drug sensitivity test, A549/SN-38-1; conditions: for IC50: A549/SN-38-1, culturing 48 hours; for Relative resistance value: IC50 for A549/SN-38-1 divided by IC50 for A549
Description: as §1, §2

[7] = system: A549/SN-38-6 cell line; experiment: Anticancer drug sensitivity test, A549/SN-38-6; conditions: for IC50: A549/SN-38-6, culturing 48 hours; for Relative resistance value: IC50 for A549/SN-38-6 divided by IC50 for A549
Description: as §1, §2

Row | SMILES | IC50 ([1]; Homo sapiens, read-out: IC50) | Relative resistance value [1] | IC50 ([2]; Homo sapiens, read-out: IC50) | Relative resistance value [2] | IC50 ([3]; Homo sapiens, read-out: IC50) | Relative resistance value [3] | IC50 ([4]; Homo sapiens, read-out: IC50) | IC50 ([5]; Homo sapiens, read-out: IC50) | Relative resistance value [5] | IC50 ([6]; Homo sapiens, read-out: IC50) | Relative resistance value [6] | IC50 ([7]; Homo sapiens, read-out: IC50) | Relative resistance value [7] | IC50 [1] | IC50 [2] | IC50 [3] | IC50 [4] | IC50 [5] | IC50 [6] | IC50 [7]
1 | O=c1[nH]cc(F)c(=O)[nH]1 [5-Fluorouracil] | 0.91 µg/mL (≈ 7 µM) | (0.4) | 0.69 µg/mL (≈ 5.3 µM) | (0.3) | 1.7 µg/mL (≈ 13.1 µM) | (0.8) | 2.1 µg/mL (≈ 16.1 µM) | 1.3 µg/mL (≈ 9.99 µM) | (0.6) | 4.3 µg/mL (≈ 33.1 µM) | (2.0) | 1 µg/mL (≈ 7.69 µM) | (0.5) |  |  |  |  |  |  | 
2 | N.N.[Cl][Pt][Cl] [Cisplatin] |  | (0.9) |  | (0.8) |  | (0.9) |  |  | (0.9) |  | (0.8) |  | (0.9) | 17.0 µg/mL | 15.1 µg/mL | 15.9 µg/mL | 18.6 µg/mL | 16.5 µg/mL | 15.1 µg/mL | 16.8 µg/mL
3 | COc1cccc2c1C(=O)c1c(O)c3c(c(O)c1C2=O)C[C@@](O)(C(=O)CO)C[C@@H]3O[C@H]1C[C@H](N)[C@H](O)[C@H](C)O1 [Doxorubicin] | 0.22 µg/mL (≈ 0.405 µM) | (2.3) | 0.12 µg/mL (≈ 0.221 µM) | (1.3) | 0.057 µg/mL (≈ 0.105 µM) | (0.6) | 0.1 µg/mL (≈ 0.184 µM) | 0.14 µg/mL (≈ 0.258 µM) | (1.4) | 0.19 µg/mL (≈ 0.35 µM) | (1.9) | 0.049 µg/mL (≈ 0.0902 µM) | (0.5) |  |  |  |  |  |  | 
4 | COc1cc([C@@H]2c3cc4c(cc3[C@@H](O[C@@H]3O[C@@H]5CO[C@@H](C)O[C@H]5[C@H](O)[C@H]3O)[C@H]3COC(=O)[C@H]23)OCO4)cc(OC)c1O [Etoposide] | 3.5 µg/mL (≈ 5.95 µM) | (4.0) | 1.6 µg/mL (≈ 2.72 µM) | (1.9) | 2.3 µg/mL (≈ 3.91 µM) | (2.7) | 0.9 µg/mL (≈ 1.53 µM) | 0.8 µg/mL (≈ 1.36 µM) | (1.0) | 0.27 µg/mL (≈ 0.459 µM) | (0.3) | 1 µg/mL (≈ 1.7 µM) | (1.1) |  |  |  |  |  |  | 
